According to ChEMBL document CHEMBL3507680, “University of Dundee, Gates Library screen for HepG2 cell viability”:

Assay: Human HepG2 cell viability assay in 384 well format
Format: toxicity, cell-based
Design: dose 125 nL, time 70.5 hour; concentration not given beside the values
Conditions: HepG2 cells, read-out: Inhibition

Row | Compound | cytotoxicity at 70.5 h [%]
1 | CC[C@@]1(O)CCN(C(=O)c2cccc3cc(C)oc23)C[C@H]1O | 6.9
2 | CCc1cc(N(C)CCc2noc(C)n2)nc(N2CCOCC2)n1 | -7.76
3 | c1ccc(CN2CCc3ncnc(N4CCCC4)c3CC2)nc1 | -4.15
4 | COc1ccc(OCc2cc(C(=O)N3CCCCO3)n[nH]2)c(Cl)c1 | -19.5
5 | CC[C@@H]1N(Cc2ccc(F)cc2)CCC[C@]12CCC(=O)N2CCOC | 10.3
6 | Cn1cc(NC(=O)N2CCC(CN3CCCC3)CC2)ccc1=O | -0.384
7 | CN(C)c1cc2c(nn1)CCN(C(=O)c1cc3c(s1)CCOC3)C2 | -15.2
8 | Cc1noc(CN(C)c2ccccc2)n1 | -13.6
9 | CC(=O)N1CC[C@]2(O)CCN(Cc3nc(C)c[nH]3)C[C@@H]2C1 | 9.69
10 | Cc1cccc(-c2c[nH]c(C3CCCN3C(=O)c3cc(C)n[nH]3)n2)c1 (centres undefined) | -9.63
11 | c1cnc2[nH]c(C3CCCC3)c(CN3CCOCC3)c2c1 | -9.59
12 | CCN(Cc1nonc1C)C(=O)c1cc(C(F)(F)F)nn1C | -7.63
13 | CC(C)n1cc(-c2nc3cc(S(=O)(=O)N4CCCC4)ccc3n2C)cn1 | -25.1
14 | O=C1COc2cc(C(=O)NS(=O)(=O)c3ccc(F)c(F)c3)ccc2N1 | 10.9
15 | CC(C)(N)C(=O)N1CCCC1c1cncc(Oc2ccccc2)n1 (centres undefined) | 2.03
16 | O=C(CCO)N1CCC2(CCc3ccc(-c4ccoc4)cc32)CC1 | -12.5
17 | COc1ccc(C(=O)N2C[C@@H](O)[C@H](NCCc3ncccc3C)C2)cc1 | -10.6
18 | N#CC1CCCN(c2ncnc3c2CCN(Cc2ccccc2)CC3)C1 (centres undefined) | 2.53
19 | CC(=O)N1CCCN(C(=O)NCCc2cc(Cl)cc(Cl)c2)CC1 | -6.77
20 | CNC(=O)c1n[nH]c2c1C(c1cccc3c1OC(C)(C)C3)CC(=O)N2 (centres undefined) | -1.8
21 | NC(=O)C(Cc1ccccc1)NS(=O)(=O)Cc1ccccc1Cl (centres undefined) | 7.03
22 | O=C(C1CCCC1)N1CCC2(CC1)OCCO2 | -1.7
23 | CCOC(=O)c1ccc(CNC(=O)c2ccc(C)nc2)o1 | 11

Row | Compound | cytotoxicity at 70.5 h [%]
24 | CCn1cc(CN2C[C@@H]3CCCN3C[C@H]2CCSC)c(C)n1 | -4.8
25 | CN(Cc1cc(-c2ccccc2)no1)CC1CCCN1c1cccnn1 (centres undefined) | -8.09
26 | Cc1ocnc1C(=O)N[C@H]1CN(CC2CCC2)C[C@@H]1C(C)C | -1.41
27 | CCc1ccsc1C(=O)NCCn1nc2ccccn2c1=O | -5.41
28 | OCCC1CN(c2ncnc3[nH]cnc23)CCN1Cc1cccs1 (centres undefined) | -3.01
29 | CCCNC(=O)Nc1ccc2c(c1)N(S(=O)(=O)CC)CC2 | -6.9
30 | O=S(=O)(NC1=NCN(CCc2cccs2)CN1)c1ccc(F)cc1 | -20.8
31 | CS(=O)(=O)N1CC2(CCCN2Cc2ccc(Cl)cc2)Cc2ccccc21 (centres undefined) | 7.7
32 | Cc1noc(CN(Cc2ccc3c(c2)OCCO3)Cc2ccco2)n1 | -3.69
33 | O=C(Nc1cnc2n1CCCC2)c1cccc(OCC(F)(F)F)c1 | -6.16
34 | CC(C)(C)C(=O)N1CCC(COCc2ccccc2)C1 (centres undefined) | -3.49
35 | CC(C)c1cc2c(s1)NC(c1ccccc1)NC2=O (centres undefined) | -12.1
36 | CCn1cc(CN(C)S(=O)(=O)c2cnn(C)c2)cn1 | -6.45
37 | Cc1ccc(O)c(C(=O)N2CCCC2CC(=O)c2cnn(C)c2)c1 (centres undefined) | -4.97
38 | COc1ccc(C)cc1NC(=O)CNc1ccn(CC(N)=O)n1 | -9.21
39 | COCCN1C(=O)CC(N2CCN(c3ccc(OC)cc3)CC2)C1=O (centres undefined) | -7.1
40 | CCc1cnc(CN(C)C2CCN(CCc3cccs3)C2)o1 (centres undefined) | -4.48
41 | O=C1CCCN1Cc1nnc2n1CCCN(C(=O)c1ccc[nH]1)C2 | 5.33
42 | O=C(C1SCCc2sccc21)N1CCCCC1 (centres undefined) | -6.95
43 | Cc1cnccc1NCCNC1CCSCC1 | -17.3
44 | Cc1ccc(NCc2ccco2)cc1N1CCOC1=O | -16
45 | Cc1ccc(-n2cc(CN3CCN(C)[C@@H]4CS(=O)(=O)C[C@@H]43)cn2)cc1 | -5.8
46 | CCNC(=O)NCc1cccc(N2CC=CC2)c1 | 1.58

Row | Compound | cytotoxicity at 70.5 h [%]
47 | c1cnn(CC2CN(Cc3ccc(-n4ccnc4)cc3)CCO2)c1 (centres undefined) | 12.9
48 | CCOCC(=O)N1Cc2nccn2CC(CN2CCCC2)C1 (centres undefined) | -11.5
49 | OCc1cn(Cc2cccc(C(F)(F)F)c2)nn1 | -9.88
50 | OCC1(O)CCCN(Cc2noc(-c3ccccc3)n2)C1 (centres undefined) | -10.2
51 | Cc1nc(NC(=O)c2c(-n3cnnn3)sc3c2CCC3)sc1C | -5.79
52 | O=S(=O)(NCc1ccccc1)Nc1ccc(-n2ccnc2)cc1 | 23.3
53 | COc1cccc(-c2noc(-c3ccc(NCC(C)O)nc3)n2)c1OC (centres undefined) | -0.152
54 | Cc1cc(C2CCC2)nc(NCC(C)(C)CO)n1 | -2.23
55 | Cc1ccccc1C(=O)CN1C(=O)c2ccccc2CS1(=O)=O | 5.68
56 | CCc1cnc(CN(C)C(=O)NC2CCN(CC3CC3)C2)s1 (centres undefined) | 25.5
57 | c1cnc(NCc2nnn3c2CN(Cc2cccs2)CCC3)nc1 | -115
58 | O=C(C[C@@H]1COC[C@H]2CN(C3CCCC3)C[C@@H]12)NCc1cccnc1 | -8.82
59 | CN(C)CCN1C[C@@H]2CN(C(=O)C3CC=CC3)C[C@@H]2C1=O | -10.8
60 | Cn1cc(C2COC3(CCN(C(=O)c4ccccn4)CC3)C2)cn1 (centres undefined) | -12.1
61 | Cn1nc(C#N)c2c1CN(C(=O)c1nc[nH]n1)CCC2 | -1.6
62 | Cc1nc(C)n(CC2CN(CCOCC(F)(F)F)CCO2)n1 (centres undefined) | -17.5
63 | Cc1ncc(C(=O)NC2CCc3nccn3C2)c(C(C)C)n1 (centres undefined) | -3.83
64 | CSCC(=O)Nc1nccn1Cc1ccc(Br)cc1 | -3.91
65 | CCC1COCCN1C(=O)NCc1nccn1Cc1ccccc1 (centres undefined) | -2.58
66 | O=C1CC(c2cccnc2)C2(CCN(C(=O)N3CCOCC3)CC2)N1 (centres undefined) | -12.4
67 | CC1CCCN(Cc2ccc(C(N)=O)cc2)C1 (centres undefined) | 0.459
68 | CC1CC2(CCN(C(=O)c3csnn3)CC2)c2ccccc21 (centres undefined) | 0.655
69 | Cc1nc(CN2CCN(CCCc3ccccc3)CC2)no1 | 1.83

Row | Compound | cytotoxicity at 70.5 h [%]
70 | CCn1cc(NC(=O)NCC(c2cccc(F)c2)N(C)C)cn1 (centres undefined) | -4.54
71 | O=C(NCCc1nncn1C1CC1)C1SCCc2sccc21 (centres undefined) | -8.14
72 | c1cnc(N2CCOCC3(CCN(c4cnccn4)CC3)C2)nc1 | -8.75
73 | O=C(C1CC(=O)N(C2CCCC2)C1)N1CCN(CCn2cccc2)CC1 (centres undefined) | -5.71
74 | Cc1nccnc1-n1c(COCC(=O)O)nc2c(C)cccc21 | -1.07
75 | CN(CCCc1nccn1C)C(=O)C1CCN(C(=O)C2CCC2)CC1 | 3.53
76 | Cc1nc(C2CCN(C)CC2)cc(N2CCOc3ccc(Cl)cc3C2)n1 | 32.5
77 | O=C(Cn1ccc2c(Cl)cccc21)N1CCC2(CC1)OCCO2 | -4.3
78 | CCc1cc(NC(=O)C2CCCN(C(=O)c3ccncc3)C2)[nH]n1 (centres undefined) | -10.6
79 | O=C(CNC(=O)c1cc(Cl)ccn1)Nc1nccs1 | -4.32
80 | COc1ccc(CNC2CCCc3nc(N(C)C)ncc32)c(OC)c1 (centres undefined) | -8.28
81 | CCOC1COC2(CCN(c3ccccn3)CC2)C1 (centres undefined) | -0.266
82 | O=C1CC(NCc2ccncc2)CN1CCc1cccc(Cl)c1 (centres undefined) | -6.56
83 | CCOc1ccccc1C(CC(=O)Nc1ncc(C)s1)NC(C)=O (centres undefined) | 14.6
84 | CCOCC(=O)N1CCC(c2nc(-c3cccnn3)no2)CC1 | -11.6
85 | C[C@]1(O)CN(CCC(N)=O)CC[C@@H]1Oc1cccc(F)c1 | -0.798
86 | CC(C)c1cc(N2CC[C@H](F)C2)n2nccc2n1 | 2.77
87 | CC(=O)N1CCCN(CCCSCc2ccccc2)CC1 | -6.67
88 | CCOc1ccc2c(c1)CN(Cc1nc3c(cnn3C)c(=O)[nH]1)CC2 | -4.82
89 | CS(=O)(=O)NCCCN1CCCCC1c1cc2ccccc2[nH]1 (centres undefined) | 33.9
90 | COCCN1CCCC(CCCc2ccccn2)(C(N)=O)C1 (centres undefined) | -6.05
91 | Cc1cccn2c(=O)cc(CN3CCCC3Cn3cncn3)nc12 (centres undefined) | -5.2
92 | COC(=O)CN1Cc2cc3c(cc2NCCC1=O)OCO3 | -9.74

Row | Compound | cytotoxicity at 70.5 h [%]
93 | CS(=O)(=O)N1CCC(C(=O)NC(Cc2ccsc2)c2cccnc2)CC1 (centres undefined) | 23.2
94 | Cn1cc(N2CC3(CCN(CC4CCOCC4)CC3)OCC2=O)cn1 | -17.2
95 | O=C(c1ccc(O)cn1)N1CCOC(Cc2cccc(C(F)(F)F)c2)C1 (centres undefined) | 22.6
96 | CN(CC1CCOC1)S(=O)(=O)c1cccc(C(=O)N2CCCCCC2)c1 (centres undefined) | -14.8
97 | CCc1ccc(C(=O)O)cc1S(=O)(=O)Nc1c(C)ccn(C)c1=O | -9.15
98 | CN1CCC/C1=N\S(=O)(=O)c1ccc(NC(=O)Cc2cccs2)cc1 | -2.68
99 | O=C(Nc1cnn(CC(=O)N2CCCCO2)c1)c1ccccn1 | 2.98
100 | Cc1cc(C)c(CNC(=O)NCC2Cc3ccccc32)c(=O)[nH]1 (centres undefined) | -12
101 | COc1cc(N2CCC3(C2)CN(c2cccnc2)C(=O)CN3C)ncn1 (centres undefined) | -4.78
102 | Cn1c(Cn2ccnc2)nnc1C1CCCN(c2ncccn2)C1 (centres undefined) | -9.36
103 | COc1ccccc1C1Cn2c(C)cnc2CN1Cc1ccc(C)nc1 (centres undefined) | 22.5
104 | c1cc2c(cc1CSCc1noc(C3CC3)n1)OCCO2 | -13.8
105 | Cc1cnc(C(=O)N2CCCN(Cc3csc(C)n3)CC2)cn1 | -5.72
106 | CC[C@@H]1N(Cc2ccc(C)s2)CCC[C@]12CCC(=O)N2C | -11.2
107 | CNC(=O)NC(=O)COc1c(C(C)=O)ccc(Cl)c1Cl | -9.38
108 | CN(C(=O)c1cccc(C(=O)NS(C)(=O)=O)c1)c1ccccc1 | -8.09
109 | NC(=O)C1Cc2ccccc2CN1CCC(=O)N1CCc2ccccc21 (centres undefined) | -6.41
110 | CC(C)C(C(=O)N1CCN(Cc2cscn2)CC1)n1cncn1 (centres undefined) | -1.99
111 | COCCCC(=O)Nc1cccnc1N1CCCCC1 | -10.4
112 | COc1ccc(C)cc1CN(C)CCCNS(C)(=O)=O | 7.17
113 | Cc1ccccc1C(=O)N1Cc2c(Cn3ccnc3)nn(C)c2C1 | -9.48
114 | COc1cc(CCC(=O)N2CCC(c3cnccn3)CC2)on1 | -1.25
